Measured values reported in publication PMC8869358, “High-Throughput Chemical Screening and Structure-Based Models to Predict hERG Inhibition” (Biology, 2022).
Where a name gives a salt, the structure may show the parent alone. Read-outs that look alike come from different tables or passages of the source.

Assays:
hERG [1] = target: T1, hERG (Homo sapiens, UniProt Q12809); assay: Tox21 qHTS FluxOR thallium flux assay in hERG-U2OS cells
Procedure: The hERG-U2OS cell line was purchased from Codex BioSolution, Inc. (Gaithersburg, MD, USA). All the cell culture reagents were obtained from Invitrogen (Life Technologies, Madison, WI, USA). The hERG-U2OS cells were cultured in DMEM with Glutamax containing 10% fetal bovine serum (FBS), 1% of Non-Essential AA (NEAA), 50 U/mL penicillin, 50 μg/mL streptomycin, and 1 µg/mL puromycin. The cells were maintained at 37 °C under a humidified atmosphere and 5% CO2.
A FluxORTM thallium flux assay was performed in hERG-U2OS cells with stable hERG expression, as previously described. In this assay, thallium ions are used as surrogates for K^+ ions to monitor the activity of the hERG K^+ channel. […] The hERG-U2OS cells suspended in culture medium were dispensed at 1000 cells/well/3μL into 1536-well, black wall/clear-bottom plates using a Multidrop Combi dispenser (Thermo Fisher, Waltham, MA, USA). After the assay plates were incubated at 37 °C overnight, 3 μL of Loading Buffer provided from FluxOR II Potassium Ion Channel Assay Kit (Life Technologies, Carlsbad, CA, USA) was added to each assay well. The assay plates were then incubated at room temperature in the dark for 1 h, followed by the addition of 23 nL of compound, dissolved in DMSO, DMSO only, or positive control, to the assay plate. Each compound was tested at 15 concentrations in three independent runs.
Multiple criteria were used to select each small molecule, including properties allowing for high-throughput screens (HTS) (molecular weight, volatility, solubility, logP), commercial availability, possible and definite environmental hazards, or exposure concerns, and cost. A diverse group of 88 compounds was selected to be used as an internal control and plated in duplicate on each library plate to perform reproducibility analysis as well as to determine positional plate effects. Each compound in the Tox21 10K compound library was subjected to analytical chemistry quality control (QC), which provides information on the purity and identity of each sample. […] The compounds were serially diluted in Dimethylsulfoxide (DMSO) to 15 concentrations in 1536-well plates, covering a concentration range of up to four orders of magnitude.
Many of these chemicals were sourced independently by NTP/EPA/NCATS from different vendors or the same vendor but different batches; these chemicals have been tested in replicates. Compound concentration-response data analysis was performed as previously described. […] The dataset was then corrected using the DMSO-only compound plates at the beginning and end of the compound plate stack by applying an in-house pattern correction algorithm. The half-maximum inhibition values (IC50) for each compound and maximum response (efficacy) values were obtained by fitting the concentration-response curves of each compound to a four-parameter Hill equation [24]. […] To identify chemicals with the potential to inhibit the hERG channel, we selected only antagonist chemicals with curve rank −5 to −9.

hERG [2] = target: T1, hERG; assay: cell-based; details: (-LOG10(IC50), µM)
[3] = hERG-U2OS cells, thallium flux, qHTS, result in words
[4] = (-LOG10(IC50), µM), Supplementary File S2, Tox21 chemical library
[5] = IC50, hERG-U2OS cells, thallium flux, qHTS, 15 concentrations, three runs

T1 sequence (Q12809 whole entry): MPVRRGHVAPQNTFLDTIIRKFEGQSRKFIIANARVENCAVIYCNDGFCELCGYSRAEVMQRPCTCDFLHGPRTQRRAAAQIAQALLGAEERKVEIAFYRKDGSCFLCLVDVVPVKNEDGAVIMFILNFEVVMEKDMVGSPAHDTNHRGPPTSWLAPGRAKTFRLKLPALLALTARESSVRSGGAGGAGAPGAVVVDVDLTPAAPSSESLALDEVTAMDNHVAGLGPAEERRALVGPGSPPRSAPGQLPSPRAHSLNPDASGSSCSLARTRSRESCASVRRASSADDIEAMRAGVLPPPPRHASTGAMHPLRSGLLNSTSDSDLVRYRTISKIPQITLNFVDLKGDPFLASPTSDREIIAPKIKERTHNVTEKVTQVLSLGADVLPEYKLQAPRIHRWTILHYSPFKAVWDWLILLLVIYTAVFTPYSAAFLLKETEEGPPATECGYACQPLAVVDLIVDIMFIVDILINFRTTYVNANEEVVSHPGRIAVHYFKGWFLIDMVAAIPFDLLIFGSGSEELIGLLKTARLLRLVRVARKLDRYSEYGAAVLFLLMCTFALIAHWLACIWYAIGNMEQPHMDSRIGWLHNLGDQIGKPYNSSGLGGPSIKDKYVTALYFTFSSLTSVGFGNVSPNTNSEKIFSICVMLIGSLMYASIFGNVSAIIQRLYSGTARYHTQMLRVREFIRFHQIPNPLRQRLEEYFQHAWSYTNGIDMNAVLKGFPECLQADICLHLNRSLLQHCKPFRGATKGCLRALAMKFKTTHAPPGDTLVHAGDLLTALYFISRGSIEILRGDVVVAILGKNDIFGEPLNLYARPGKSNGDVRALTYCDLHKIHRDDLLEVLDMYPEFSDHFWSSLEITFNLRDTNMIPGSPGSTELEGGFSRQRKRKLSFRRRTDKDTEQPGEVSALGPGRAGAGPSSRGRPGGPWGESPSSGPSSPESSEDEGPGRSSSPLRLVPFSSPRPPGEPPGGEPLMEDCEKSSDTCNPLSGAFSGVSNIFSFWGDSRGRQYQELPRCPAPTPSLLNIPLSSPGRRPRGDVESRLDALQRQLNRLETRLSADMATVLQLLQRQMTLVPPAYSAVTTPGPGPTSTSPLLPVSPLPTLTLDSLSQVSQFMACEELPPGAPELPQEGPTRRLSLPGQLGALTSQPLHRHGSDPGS

Compound | activity outcome for hERG inhibition in the assay (hERG [1]; [3]) | IC50 (hERG [2]) | also measured
CCCCCCCCCCn1cc[n+](CCCCCCCCCC)c1C.[Cl-] [3-Didecyl-2-methylimidazolium chloride] | most active | – | –
O=c1[nH]cc(F)c(=O)[nH]1 [5-fluorouracil] | inactive | – | –
CCNC(=O)N1CCN(CCCC(c2ccc(F)cc2)c2ccc(F)cc2)CC1 [Amperozide hydrochloride] | – | – | IC50 (hERG [1]; [4]): 0.0916 µM
CO.COc1cc(Nc2c(C#N)cnc3cc(OCCCN4CCN(C)CC4)c(OC)cc23)c(Cl)cc1Cl [Bosutinib methanoate] | showing activity against hERG | – | –
O=C(CCCN1CCC(O)(c2ccc(Br)cc2)CC1)c1ccc(F)cc1 [Bromperidol] | most active | 0.249 µM | –
C/C=C/C(=O)Oc1ccccc1[N+](=O)[O-] [Dinocap] | inhibitory activity | 20.3 µM | –
O=c1[nH]c2ccccc2n1CCCN1CCC(n2c(=O)[nH]c3cc(Cl)ccc32)CC1 [Domperidone] | showing activity against hERG | – | –
OC(CN1CCC(Cc2ccc(F)cc2)CC1)c1ccc(Cl)cc1 (stereo not drawn) [Eliprodil] | most active | – | IC50 (hERG [1]; [4]): 0.0916 µM; IC50 (hERG [1]; [5]): 0.09 µM
O=S1OCC2C(CO1)C1(Cl)C(Cl)=C(Cl)C2(Cl)C1(Cl)Cl (stereo not drawn) [Endosulfan] | – | 32.1 µM | activity outcome for hERG inhibition in the assay (hERG [1]): inhibitory activity
O=C1NCN(c2ccccc2)C12CCN(CCCC(c1ccc(F)cc1)c1ccc(F)cc1)CC2 [Fluspirilene] | most active | – | –
O=C(CCCN1CCC(O)(c2ccc(Cl)cc2)CC1)c1ccc(F)cc1 [Haloperidol] | – | – | activity outcome for hERG inhibition in the assay (hERG [1]): most active
CC(CCc1ccccc1)NCC(O)c1ccc(O)c(C(N)=O)c1 (stereo not drawn) [Labetalol] | – | 13.3 µM | activity outcome for hERG inhibition in the assay (hERG [1]): active
CS(=O)(=O)CCNCc1ccc(-c2ccc3ncnc(Nc4ccc(OCc5cccc(F)c5)c(Cl)c4)c3c2)o1 [Lapatinib] | showing activity against hERG | – | –
CCCCCCCC[N+](C)(CCCCCCCC)CCCCCCCC.O=S(=O)([O-])C(F)(F)F [Methyltrioctylammonium trifluoromethanesulfonate] | – | 0.109 µM | Aff (affinity classification) (hERG [1]): 1; activity outcome for hERG inhibition in the assay (hERG [1]): most active
O=c1[nH]c2ccccc2n1C1CCN(CCCC(c2ccc(F)cc2)c2ccc(F)cc2)CC1 [Pimozide] | – | – | activity outcome for hERG inhibition in the assay (hERG [1]): most active
CC(C)(C)c1ccc(CSc2cnn(C(C)(C)C)c(=O)c2Cl)cc1 [Pyridaben] | inhibitory activity | 18.8 µM | –
Cc1nc2sccn2c(=O)c1CCN1CCC(=C(c2ccc(F)cc2)c2ccc(F)cc2)CC1 [Ritanserin] | most active | – | IC50 (hERG [1]; [5]): 0.18 µM
CC(C)NCC(O)c1ccc(NS(C)(=O)=O)cc1 (stereo not drawn) [Sotalol] | active | – | –
O=C(CCCN1CCC(O)(c2cccc(C(F)(F)F)c2)CC1)c1ccc(F)cc1 [Trifluperidol] | most active | – | –
FC(F)(F)c1cccc(C2=CCN(CCc3ccc4ccccc4c3)CC2)c1 [Xaliproden hydrochloride] | – | 1.76 µM | –
COC(=O)[C@@H]1[C@H]2C[C@H]3c4[nH]c5ccccc5c4CCN3C[C@@H]2CC[C@@H]1O [Yohimbine] | – | 23.9 µM | –
CC1(CN2CCC(n3c(=O)[nH]c4ccccc43)CC2)OCc2ccccc2-n2cccc21 (stereo not drawn) [Zaldaride] | – | 8.82 µM | –
c1ccc(C(O[C@H]2CCCN(CCc3ccc4c(c3)OCO4)C2)c2ccccc2)cc1 [Zamifenacin fumarate] | – | 0.535 µM | –
c1ccc(C(O[C@@H]2CCCN(CCc3ccc4c(c3)OCO4)C2)c2ccccc2)cc1 [Zamifenacin] | – | 0.838 µM | –

Compound | activity outcome for hERG inhibition in the assay (hERG [1]; [3]) | IC50 (hERG [2]) | also measured
O=C(CCC1CCN(Cc2ccccc2)CC1)c1ccc2c(c1)NCCCC2 [Zanapezil fumerate] | – | 4.59 µM | –
COc1ccc(CCN(C)CCCN2CCc3cc(OC)c(OC)cc3CC2=O)cc1OC [Zatebradine hydrochloride] | – | 10.1 µM | –
C[C@H]1CCC[C@H](O)CCCCCc2cc(O)cc(O)c2C(=O)O1 [Zearalanol] | – | 55.4 µM | –
c1cc(CN2CCCCC2)cc(OCCCNc2nc3ccccc3s2)c1 [Zolantidine dimaleate] | – | 9.16 µM | –
CCC(C)(NC(=O)c1cc(Cl)c(C)c(Cl)c1)C(=O)CCl (stereo not drawn) [Zoxamide] | – | 39.1 µM | –
C=CCC1=C(C)C(OC(=O)C2C(C=C(C)C)C2(C)C)CC1=O (stereo not drawn) [allethrin] | – | 32.3 µM | activity outcome for hERG inhibition in the assay (hERG [1]): inhibitory activity
Cl[C@H]1[C@H](Cl)[C@@H](Cl)[C@H](Cl)[C@H](Cl)[C@H]1Cl [alpha-1,2,3,4,5,6-Hexachlorocyclohexane] | – | 49.4 µM | –
CCNc1ccc(C(=C2C=CC(=[N+](CC)CC)C=C2)c2ccc(N(CC)CC)cc2)c2ccccc12.[Cl-] [basic blue 7] | most active | 0.526 µM | –
OCCN1CCN(CC/C=C2/c3ccccc3Sc3ccc(C(F)(F)F)cc32)CC1 [cis-Flupentixol] | – | 1.69 µM | –
Cl[C@H]1[C@H](Cl)[C@@H](Cl)[C@H](Cl)[C@@H](Cl)[C@H]1Cl [delta-Hexachlorocyclohexane] | – | 51.9 µM | –
CC1(C)CNC(=NN=C(/C=C/c2ccc(C(F)(F)F)cc2)/C=C/c2ccc(C(F)(F)F)cc2)NC1 [hydramethylnon] | most active | 0.436 µM | –
Cl[C@H]1[C@H](Cl)[C@@H](Cl)[C@@H](Cl)[C@H](Cl)[C@H]1Cl [lindane] | – | 45 µM | activity outcome for hERG inhibition in the assay (hERG [1]): inhibitory activity
Clc1ccc(C(c2ccccc2Cl)C(Cl)(Cl)Cl)cc1 (stereo not drawn) [o p’-DDT] | inhibitory activity | – | –
ClC(Cl)=C(c1ccc(Cl)cc1)c1ccccc1Cl [o,p'-DDE] | – | 21 µM | –
Clc1ccc(C(c2ccccc2Cl)C(Cl)(Cl)Cl)cc1 (stereo not drawn) [o,p'-DDT] | – | 21.5 µM | –
Clc1ccc(C(c2ccc(Cl)cc2)C(Cl)Cl)cc1 [p,p'-DDD] | – | 25.5 µM | –
ClC(Cl)=C(c1ccc(Cl)cc1)c1ccc(Cl)cc1 [p,p'-DDE] | – | 27.5 µM | –
CCc1ccc(C(c2ccc(CC)cc2)C(Cl)Cl)cc1 [p,p'-Ethyl-DDD] | – | 17.7 µM | –
CCOP(=S)(OCC)Oc1ccc([N+](=O)[O-])cc1 [parathion] | – | 45.9 µM | –
C#CCC1=C(C)C(OC(=O)C2C(C=C(C)C)C2(C)C)CC1=O (stereo not drawn) [prallethrin] | inhibitory activity | 46.8 µM | –
CCCCCCCC[N+](CCCCCCCC)(CCCCCCCC)CCCCCCCC.[Br-] [tetra-N-octylammonium bromide] | – | 0.745 µM | activity outcome for hERG inhibition in the assay (hERG [1]): most active
CCCCCCCC[P+](CCCCCCCC)(CCCCCCCC)CCCCCCCC.[Br-] [tetraoctylphosphonium bromide] | most active | 0.402 µM | –
CCCCCCCCCCCCCC[P+](CCCC)(CCCC)CCCC.[Cl-] [tributyltetradecylphosphonium chloride] | most active | 0.334 µM | –
O=P(Oc1ccccc1)(Oc1ccccc1)Oc1ccccc1 [triphenyl phosphate] | – | 32.1 µM | –
